Test results published in patent publication US12195442B2, “(Hetero)arylimidazole compound and harmful organism control agent” (Nippon Soda Co., Ltd., priority 2018, dated 2025).

test system: Mythimna separata; test: Test Example 1: efficacy on Mythimna separata (treated artificial feed); assay type: in vivo; conditions: 1 μl of 5% emulsion (I) mixed with 0.8 g artificial feed; second instar larvae; 25° C.; fifth day
Method: 5 parts of the (hetero)aryl imidazole compound of the present invention, 93.6 parts of dimethylformamide, and 1.4 parts of polyoxyethylene alkyl aryl ether were mixed and dissolved to prepare emulsion (I) containing 5% of the active ingredient.
For a control, 98.5 parts of dimethylformamide and 1.5 parts of polyoxyethylene alkyl aryl ether were mixed and dissolved to prepare emulsion (II).
An insecticidal rate was calculated according to the following expression: Insecticidal rate (%)=(The number of dead insects/The number of tested insects)×100
0.8 g of commercially available artificial feed (Insecta LFS, manufactured by Nosan Corp.) and 1 μl of the emulsion (I) were well mixed to obtain test feed.
A plastic test container (capacity: 1.4 ml) was packed with 0.2 g of the test feed per treatment plot. Then, two second instar larvae of Mythimna separata were inoculated to each treatment plot. A plastic lid was put on the test container so as to prevent escape of the second instar larvae of Mythimna separata. The container was placed in a thermostat chamber of 25° C. On the fifth day, the insecticidal rate and the food intake were examined. The test was conducted in duplicate.
The insecticidal rate and the food intake of a control plot were examined in the same way as in Test Example 1 except that the emulsion (I) was changed to the emulsion (II).

| SMILES | insecticidal rate or food intake as compared with the control plot |
| --- | --- |
| CCS(=O)(=O)c1cc(C2CC2)cnc1-c1ncc(C=C(Cl)I)n1C [d-14] | insecticidal rate of 100% for Mythimna separata or a food intake of 10% or less as compared with the control plot |
| CCS(=O)(=O)c1cc(C2(C)CC2)cnc1-c1ncc(C=CC(F)(F)C(F)(F)C(F)(F)F)n1C [d-29] | insecticidal rate of 100% for Mythimna separata or a food intake of 10% or less as compared with the control plot |
| CCS(=O)(=O)c1cc(C2CC2)cnc1-c1ncc(C=C(F)C(F)(F)C(F)(F)C(F)(F)F)n1C [d-27] | insecticidal rate of 100% for Mythimna separata or a food intake of 10% or less as compared with the control plot |
| CCS(=O)(=O)c1cc(C2CC2)cnc1-c1ncc(C=C(Cl)Cl)n1C [d-8] | insecticidal rate of 100% for Mythimna separata or a food intake of 10% or less as compared with the control plot |
| CCS(=O)(=O)c1cc(C2CCCC2)cnc1-c1ncc(C=C(Cl)C(F)(F)F)n1C (mixture of isomers) [d-32] | insecticidal rate of 100% for Mythimna separata or a food intake of 10% or less as compared with the control plot |
| CCS(=O)(=O)c1cc(C2(C#N)CC2)cnc1-c1ncc(C=CC(F)(F)F)n1C [d-16] | insecticidal rate of 100% for Mythimna separata or a food intake of 10% or less as compared with the control plot |
| CCS(=O)(=O)c1cc(C2CC2)cnc1-c1ncc(C=C(C(F)(F)F)C(F)(F)F)n1C [d-19] | insecticidal rate of 100% for Mythimna separata or a food intake of 10% or less as compared with the control plot |
| CCS(=O)(=O)c1cc(C2CC2)cnc1-c1ncc(C=C(Cl)C(F)(F)C(F)(F)C(F)(F)F)n1C [d-13] | insecticidal rate of 100% for Mythimna separata or a food intake of 10% or less as compared with the control plot |
| CCS(=O)(=O)c1cc(C2(c3ccccn3)CC2)cnc1-c1ncc(C=C(Cl)C(F)(F)F)n1C (mixture of isomers) [d-21] | insecticidal rate of 100% for Mythimna separata or a food intake of 10% or less as compared with the control plot |
| CCS(=O)(=O)c1cc(C2(C#N)CC2)cnc1-c1ncc(C=CC(F)(F)C(F)(F)F)n1C [d-22] | insecticidal rate of 100% for Mythimna separata or a food intake of 10% or less as compared with the control plot |
| CCS(=O)(=O)c1cc(C2CC2)ccc1-c1ncc(C=C(Cl)C(F)(F)F)n1C (mixture of isomers) [d-7] | insecticidal rate of 100% for Mythimna separata or a food intake of 10% or less as compared with the control plot |
| CCS(=O)(=O)c1cc(C2CC2)ccc1-c1ncc(C=CC(F)(F)C(F)(F)F)n1C [d-5] | insecticidal rate of 100% for Mythimna separata or a food intake of 10% or less as compared with the control plot |
| CCS(=O)(=O)c1cc(C2(C(N)=S)CC2)cnc1-c1ncc(C=C(Cl)C(F)(F)F)n1C (mixture of isomers) [d-18] | insecticidal rate of 100% for Mythimna separata or a food intake of 10% or less as compared with the control plot |
| CCS(=O)(=O)c1cc(C2CC2)c[n+]([O-])c1-c1ncc(C=C(F)C(F)(F)C(F)(F)F)n1C [e-1] | insecticidal rate of 100% for Mythimna separata or a food intake of 10% or less as compared with the control plot |
| Cn1c(C=C(Cl)C(F)(F)C(F)(F)F)cnc1-c1ncc(C2CC2)cc1S(C)(=O)=O [d-30] | insecticidal rate of 100% for Mythimna separata or a food intake of 10% or less as compared with the control plot |
| CCS(=O)(=O)c1cc(C2CC2)cnc1-c1ncc(C=CC(F)(F)C(F)(F)F)n1C [d-1] | insecticidal rate of 100% for Mythimna separata or a food intake of 10% or less as compared with the control plot |
| CCS(=O)(=O)c1cc(C2(C#N)CC2)cnc1-c1ncc(C=CC(F)(F)C(F)(F)C(F)(F)F)n1C [d-23] | insecticidal rate of 100% for Mythimna separata or a food intake of 10% or less as compared with the control plot |
| CCS(=O)(=O)c1cc(C2CC2)cnc1-c1ncc(C=CC(F)(F)C(F)(F)C(F)(F)C(F)(F)F)n1C [d-4] | insecticidal rate of 100% for Mythimna separata or a food intake of 10% or less as compared with the control plot |
| CCS(=O)(=O)c1cc(C2CC2)ccc1-c1ncc(C=CC(F)(F)C(F)(F)C(F)(F)F)n1C [d-3] | insecticidal rate of 100% for Mythimna separata or a food intake of 10% or less as compared with the control plot |
| CCS(=O)(=O)c1cc(C2(C)CC2)cnc1-c1ncc(C=C(Cl)C(F)(F)F)n1C (mixture of isomers) [d-20] | insecticidal rate of 100% for Mythimna separata or a food intake of 10% or less as compared with the control plot |
| CCS(=O)(=O)c1cc(C2CC2)cnc1-c1ncc(C(F)=C(F)OC(F)(F)C(F)(F)C(F)(F)F)n1C [d-35] | insecticidal rate of 100% for Mythimna separata or a food intake of 10% or less as compared with the control plot |
| CCS(=O)(=O)c1cc(C2CC2)cnc1-c1ncc(C=C(Cl)C(F)(F)F)n1C [d-33] | insecticidal rate of 100% for Mythimna separata or a food intake of 10% or less as compared with the control plot |
| CCS(=O)(=O)c1cc(C2CC2)cnc1-c1ncc(C=C(Cl)C(F)(F)C(F)(F)F)n1C [d-12] | insecticidal rate of 100% for Mythimna separata or a food intake of 10% or less as compared with the control plot |
| CCS(=O)(=O)c1cc(C2(C#N)CC2)cnc1-c1ncc(C=C(Cl)C(F)(F)F)n1C [d-15, 1-(6-(5-(2-chloro-3,3,3-trifluoroprop-1-en-1-yl)-1-methyl-1H-imidazol-2-yl)-5-(ethylsulfonyl)pyridin-3-yl)cyclopropane-1-carbonitrile] | insecticidal rate of 100% for Mythimna separata or a food intake of 10% or less as compared with the control plot |
| CCSc1cc(C2CC2)ccc1-c1ncc(C=C(Cl)C(F)(F)F)n1C (mixture of isomers) [d-6] | insecticidal rate of 100% for Mythimna separata or a food intake of 10% or less as compared with the control plot |
| CCS(=O)(=O)c1cc(C2CC2)c[n+]([O-])c1-c1ncc(C=C(Cl)C(F)(F)F)n1C (mixture of isomers) [e-4] | insecticidal rate of 100% for Mythimna separata or a food intake of 10% or less as compared with the control plot |
| Cn1c(C=C(Cl)C(F)(F)F)cnc1-c1ncc(C2CC2)cc1S(C)(=O)=O (mixture of isomers) [d-28] | insecticidal rate of 100% for Mythimna separata or a food intake of 10% or less as compared with the control plot |
| CCS(=O)(=O)c1cc(C2CC2)cnc1-c1ncc(C=C(Br)C(F)(F)F)n1C (mixture of isomers) [d-24] | insecticidal rate of 100% for Mythimna separata or a food intake of 10% or less as compared with the control plot |
| CCS(=O)(=O)c1cc(C2CC2)cnc1-c1ncc(C(F)=C(F)OC(F)(F)F)n1C (mixture of isomers) [d-37] | insecticidal rate of 100% for Mythimna separata or a food intake of 10% or less as compared with the control plot |
